BindingDB's records for doi:10.1016/j.bmcl.2008.04.069 (Bristol-Myers Squibb, 2008)

Biological target: T1, 11-beta-hydroxysteroid dehydrogenase 1 [23-292,A23S,F278E] (Homo sapiens, UniProt P28845, A23S/F278E)
T1 construct: 23-292
Experiment: Scintillation Proximity Assay (SPA)
Conditions: pH 6.5; 23 °C
Experimental: 11beta-HSD1 microsomes isolated from HEK 293 cells over-expressing human 11beta-HSD1 were incubated with the substrate cortisone and cofactor NADPH at room temperature. The reactions were terminated with the addition of a nonspecific 11beta-HSD1 inhibitor (18beta-glycyrrhetinic acid). The product cortisol was quantified in an immuno-competition SPA wherein the [3H]-cortisol bound to anti-rabbit antibody Yitrium silicate SPA beads coated with polyclonal anti-cortisol antibody was competed by cortisol produced in the reaction, and the reaction mixture was read in a scintillation plate reader (TopCount). The amount of cortisol was determined from a cortisol standard curve.

T1 sequence (P28845 as listed by the source A23S/F278E): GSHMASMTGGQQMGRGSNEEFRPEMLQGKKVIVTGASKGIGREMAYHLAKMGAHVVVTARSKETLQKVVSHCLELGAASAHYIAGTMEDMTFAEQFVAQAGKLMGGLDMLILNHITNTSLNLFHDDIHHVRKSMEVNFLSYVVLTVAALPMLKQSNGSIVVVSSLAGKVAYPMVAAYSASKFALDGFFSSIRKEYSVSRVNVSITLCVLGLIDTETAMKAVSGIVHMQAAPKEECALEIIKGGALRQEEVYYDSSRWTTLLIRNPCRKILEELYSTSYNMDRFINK

IC50: > 10 µM
Structure (SMILES): O=C(c1cncc(CS(=O)(=O)c2c(Cl)cccc2Cl)c1)N1CCOCC1 [pyridine amide, 26]
